# Patent US20050095239A1, “Methods and compositions for treating Alzheimer's disease” (priority 2002, published 2005)
# Assays:
# LXRα or LXRβ isoforms = settings: references 37, 38; cited from earlier work
# [1] = system: ABCA1 protein expression in Neuro2A cells; test: ABCA1 immunoblot of Neuro2A cells treated with retinoic acid and oxysterols; format: cell-based, mouse; settings: for ABCA1 induction, densitometric analysis / increase of ABCA1 protein (immunoblot) compared with 22-hydroxycholesterol: 5 μM oxysterol with 5 μM retinoic acid; for increase of ABCA1 protein (immunoblot) compared with 22-hydroxycholesterol: one or two days
# Description: (§1) Cell culture. Mouse Neuro2A (neuroblastoma) cells and human IMR-32 (neuroblastoma) cells (American Type Culture Collection, Manassas, Va.) were cultured in Optimem (Gibco, Invitrogen Life Technologies, Carlsbad, Calif.) supplemented with 10% fetal bovine serum. Mouse BV-2 (microglial) and rat C6 (glioma) cells were cultured in Dulbecco's modified Eagle's medium supplemented with 5% fetal bovine serum. Mouse primary neuronal cultures were generated as described (27). Briefly, cortical neurons were isolated from embryonic day 16 Swiss-Webster mice. Individual cortices was dissociated in calcium-free saline and plated on poly-D-lysine (Sigma) coated tissue culture dishes at the density of 1.5×10^6 cell/ml. The neurons were grown in Neurobasal Media (Gibco BRL) plus 10% fetal bovine serum. One hour after plating, medium with serum was replaced with medium containing B-27 supplement (Gibco BRL). Western blot. Cells were lysed in 250 mM sucrose, 10 mM HEPES (pH 7.4), supplemented with complete protease inhibitors (Sigma Chemical Co). Protein levels were quantified by the BCA assay (Pierce, Rockford, Ill.), and samples of 50 μg were held in SDS loading buffer with 2.5% β-mercaptoethanol for 30 min at room temperature, but were not boiled prior to loading. Proteins were separated by SDS-6% polyacrylamide gel electrophoresis and transferred to nitrocellulose. Blots were probed with the anti-ABC1 antibodies (1:1000), and developed with anti-rabbit linked HRP secondary antibody by chemiluminescence.
# [2] = system: ABCA1 protein expression in BV-2 cells; test: ABCA1 immunoblot of BV-2 microglial cells; format: cell-based, mouse
# Description: as §1
# [3] = system: ABCA1 protein expression in C6 cells; test: ABCA1 immunoblot of C6 glioma cells; format: cell-based, rat
# Description: as §1
# [4] = system: secreted Aβ40 from Neuro2A cells; test: Aβ40 ELISA of conditioned medium of Neuro2A cells; format: cell-based, mouse; settings: for increase of secreted Aβ40 over vehicle-treated cells: with retinoic acid, one day, 22-hydroxycholesterol 10 uM
# Description: (§2) Cell culture. Mouse Neuro2A (neuroblastoma) cells and human IMR-32 (neuroblastoma) cells (American Type Culture Collection, Manassas, Va.) were cultured in Optimem (Gibco, Invitrogen Life Technologies, Carlsbad, Calif.) supplemented with 10% fetal bovine serum. Mouse BV-2 (microglial) and rat C6 (glioma) cells were cultured in Dulbecco's modified Eagle's medium supplemented with 5% fetal bovine serum. Mouse primary neuronal cultures were generated as described (27). Briefly, cortical neurons were isolated from embryonic day 16 Swiss-Webster mice. Individual cortices was dissociated in calcium-free saline and plated on poly-D-lysine (Sigma) coated tissue culture dishes at the density of 1.5×10^6 cell/ml. The neurons were grown in Neurobasal Media (Gibco BRL) plus 10% fetal bovine serum. One hour after plating, medium with serum was replaced with medium containing B-27 supplement (Gibco BRL).
# (§3) RNA inhibition. Double stranded RNA (RNAi) was generated homologous to a region of the 5′ end of the coding portion of the mouse ABCA1 gene, 5′-AAGTGGCCTGGCCTCTCTTTA-3′ (SEQ ID NO:2) (Dharmacon Research Inc, Lafayette, Colo.). As a negative control, we used a sequence directed against the human hsp70 gene. Neuro2A cells were transfected with the RNAi with Effectene transfection reagent (Qiagen, Valencia, Calif.) according to manufacturer protocol. After an overnight exposure, RNAi complex was removed, cells were washed one time in growth medium, and the media was replaced with Neurobasal medium with 2% B-27 with or without LXR/RXR agonists for one day. Conditioned media was collected and analyzed for Aβ.
# (§4) Aβanalyses. Cells were cultured in Neurobasal medium with 2% B-27 for one day in the presence or absence of LXR/RXR agonists. Aβ40 and Aβ42 levels in the conditioned medium were determined by ELISA, with BNT77 as a capture antibody and BA23-HRP for Aβ40 or BC05-HRP for Aβ42 as detection antibodies (28). Aβ antibodies for ELISA were the generous gift of Takeda Chemical Industries.
# [5] = system: secreted Aβ42 from Neuro2A cells; test: Aβ42 ELISA of conditioned medium of Neuro2A cells; format: cell-based, mouse; settings: for increase of secreted Aβ42 over vehicle-treated cells: with retinoic acid, one day, 22-hydroxycholesterol 10 uM
# Description: as §2, §3, §4
# [6] = system: ABCA1 protein expression in mouse primary neurons; test: ABCA1 immunoblot of mouse primary neurons treated with retinoic acid and 22-hydroxycholesterol; format: cell-based
# Description: as §1, with “Blots were probed with the anti-ABC1 antibodies (1:1000), and developed with anti-rabbit linked HRP secondary antibody by chemiluminescence.” left out
# [7] = system: ABCA1 protein expression in human neuroblastoma IMR-32 cells; test: ABCA1 immunoblot of IMR-32 cells; format: cell-based; settings: with retinoic acid
# Description: as §1, with “Blots were probed with the anti-ABC1 antibodies (1:1000), and developed with anti-rabbit linked HRP secondary antibody by chemiluminescence.” left out
# [8] = 1 μM TO-901317 in the presence of 5 μM retinoic acid
# [9] = 5 μM retinoic acid and 5 μM 22-hydroxycholesterol together
# [10] = cells treated only with buffer or with the RNAi named
# [11] = retinoic acid and 22-hydroxycholesterol vs vehicle (ethanol), absence of RNAi
structure (smiles),measurement,setting,value
CC(C)[C@@H](O)CC[C@@H](C)[C@H]1CC[C@H]2[C@@H]3CC=C4C[C@@H](O)CC[C@]4(C)[C@H]3CC[C@]12C [24S-hydroxycholesterol],ABCA1 expression through interactions with LXRα or LXRβ,LXRα or LXRβ isoforms,induces ABCA1 expression
CC(C)CCC[C@@H](C)[C@H]1CC[C@H]2[C@@H]3C(=O)C=C4C[C@@H](O)CC[C@]4(C)[C@H]3CC[C@]12C [7-ketocholesterol],"ABCA1 induction, densitometric analysis",[1],only half that level
same,increase of ABCA1 protein (immunoblot) compared with 22-hydroxycholesterol,[1],not as efficacious
C[C@H](CCCC(C)(C)O)[C@H]1CC[C@H]2[C@@H]3CC=C4C[C@@H](O)CC[C@]4(C)[C@H]3CC[C@]12C [25-hydroxycholesterol],"ABCA1 induction, densitometric analysis",[1],equivalent extent
same,increase of ABCA1 protein (immunoblot) compared with 22-hydroxycholesterol,[1],nearly as well as 22-hydroxycholesterol
O=S(=O)(c1ccccc1)N(CC(F)(F)F)c1ccc(C(O)(C(F)(F)F)C(F)(F)F)cc1 [TO-901317],ABCA1 expression,[2]; 1 μM TO-901317 alone,increased
same,ABCA1 expression,[2]; [8],further increased
same,ABCA1 expression,[3]; 1 μM TO-901317 alone,increased
same,ABCA1 expression,[3]; [8],further increased
same,increase of secreted Aβ40 over vehicle-treated cells,[4],25%
same,increase of secreted Aβ42 over vehicle-treated cells,[5],126%
"CC(C)CC[C@@H](O)[C@@H](C)[C@H]1CC[C@H]2[C@@H]3CC=C4C[C@@H](O)CC[C@]4(C)[C@H]3CC[C@]12C [22-hydroxycholesterol, 22(R)-hydroxycholesterol]",ABCA1 expression with increasing concentration,"[6]; 22-hydroxycholesterol together with retinoic acid, from 100 nM to 10 uM",further increased ABCA1 expression
same,ABCA1 protein compared to untreated cells,"[6]; one-day treatment, 100 nM 22-hydroxycholesterol together with 100 nM retinoic acid",up-regulation of ABCA1 protein
same,"ABCA1 induction, densitometric analysis",[1],equivalent extent
same,expression of ABCA1,"[1]; 10 μM retinoic acid and 22-hydroxycholesterol together, untreated cells low or undetectable",clearly apparent
same,up-regulation of ABCA1 in cells treated only with the one compound,"[1]; compound alone, some experiments",weak up-regulation
same,ABCA1 levels,[7],detectable ABCA1 levels only after induction
same,ABCA1 expression,[2]; [9],increased
same,ABCA1 expression,[3]; [9],increased
same,"secreted Aβ40 after 22-hydroxycholesterol/retinoic acid treatment, in words",[4]; [10],significantly increased
same,"increase of Aβ40, control cells of the RNAi experiment",[4]; [11],29%
same,increase of secreted Aβ40 over vehicle-treated cells,[4],29%
same,"secreted Aβ42 after 22-hydroxycholesterol/retinoic acid treatment, in words",[5]; [10],significantly increased
same,"increase of Aβ42, control cells of the RNAi experiment",[5]; [11],62%
same,increase of secreted Aβ42 over vehicle-treated cells,[5],65%
